The values that follow are results of earlier work, collected in paper PMC4263154 (Journal of Clinical Pharmacology, 2013).

Test in data set [1]: not given
This is another data set of the same source.

“Also recorded” adds a separate entry of the source. Like-named read-outs stand apart in the source and are kept apart here.

Take `CC(=O)N[C@@H](C)c1cc(Cl)ccc1C1CCN(C(=O)[C@@H]2CN(C(C)(C)C)C[C@H]2c2ccc(F)cc2F)CC1` [MK-0493]: where the note is “Phase 1 and 2 clinical trials”, the “effect on body weight and energy intake” value is “failed to demonstrate effect; also recorded: lack of efficacy”. Also, the erectogenic effect entry (clinical trial) was “failed to demonstrate the same effect”.

Turning to melanotan-II, the “effect on food intake or energy expenditure” value with MC4R (MC4R knock-out mice) is on record as “no effect”; in the data set with MC4R (wild-type mice) it was “did exert these effects”. The sexual arousal entry in data set [1] (females with sexual behavior disorders) is listed as “arousal”. Besides, in data set [1] (males with erectile dysfunction), the erectogenic activity entry was “erectogenic activity”.
